# According to patent publication US6489321B1, “Nonpeptide substituted benzothiazepines as vasopressin antagonists” (Ortho-McNeil Pharmaceutical, Inc., priority 1999, dated 2002):
# Assays:
# vasopressin V1a receptor = vasopressin V1a receptor (Homo sapiens, UniProt P37288); test: In-vitro vasopressin receptor binding assay, V1a; conditions: for IC50: footnote 1: IC50 values (μM); for inhibition at 1 µM / inhibition at 0.1 µM: read-out: Receptor Binding (% Inh. @ concentration in μM) V1a
# cloned human V2 receptor = target: T1, cloned human V2 receptor (Homo sapiens, UniProt P30518); test: In-vitro vasopressin receptor binding assay, V2; conditions: 3H-arginine-8-vasopressin; for IC50: footnote 1: IC50 values (μM)
# T1 construct: expressed in transfected cells
# Experimental: Assay buffer is 50 mM Tris-Cl, 5 mM MgC12, 0.1% BSA (pH 7.5) containing 5 ug/ml of aprotinin, leupeptin, pepstatin, 50 ug/ml bacitracin, and 1 mM Pefabloc. H3 vasopressin is ^3H-arginine-8-vasopressin (68.5 Ci/mmol, final concentration in assay is 0.65-0.75nM). Into wells of 96-well round bottom polypropylene plates are added buffer, test compound, membrane (containing cloned human V2 receptor), and H3 vasopressin. The reaction plates are allowed to sit at room temperature for one hour. The samples are filtered through Unifilter GF/C plates (presoaked in 0.3 polyethyleneimine). The plates are washed 5 times with cold physiological saline containing 0.05% Tween 20. After drying, the bottom of the filter plates are sealed and 0.025 ml of Microscint-20 is added to each filter. The top of the plate is sealed, and the plate is counted. Non-specific binding is determined by the addition of 1.25 uM arginine-8-vasopressin in those wells. %Inh. is [formula]
# vasopressin V1a receptor, sequence (P37288 whole entry): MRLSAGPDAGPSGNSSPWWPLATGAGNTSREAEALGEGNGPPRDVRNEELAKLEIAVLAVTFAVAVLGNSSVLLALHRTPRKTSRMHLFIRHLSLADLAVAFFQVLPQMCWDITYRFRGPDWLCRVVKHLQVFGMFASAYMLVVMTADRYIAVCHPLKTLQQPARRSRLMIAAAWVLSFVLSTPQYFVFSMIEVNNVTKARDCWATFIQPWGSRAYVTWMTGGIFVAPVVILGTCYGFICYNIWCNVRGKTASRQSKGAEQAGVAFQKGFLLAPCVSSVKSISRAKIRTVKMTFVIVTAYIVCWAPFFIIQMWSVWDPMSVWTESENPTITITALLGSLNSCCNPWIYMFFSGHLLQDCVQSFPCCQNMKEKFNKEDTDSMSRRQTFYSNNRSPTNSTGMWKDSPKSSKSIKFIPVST
molecule,measurement,setting,value
"2-(2-Methanesulfonylethyl)-5-(4-(2-methylbenzoylamino)benzoyl)-1,5-benzothiazepine [Compound 13]",IC50,vasopressin V1a receptor,0.3 µM
same,IC50,cloned human V2 receptor,0.2 µM
"O=C(O)CC1CCN(C(=O)c2ccc(NC(=O)c3ccccc3-c3ccccc3)cc2)c2ccccc2[S+]1[O-] (stereo not drawn) [Compound 24, 2-Carboxymethyl-1-oxo-5-(4-(2-phenylbenzoylamino)benzoyl)-1,5-benzothiazepine]",inhibition at 1 µM,vasopressin V1a receptor; 1 μM test compound,0%
same,IC50,cloned human V2 receptor,0.108 µM
Cc1ccccc1C(=O)Nc1ccc(C(=O)N2CCC(CCN(C)C)Sc3ccccc32)cc1 (stereo not drawn) [Compound 9],IC50,vasopressin V1a receptor,1.5 µM
same,Receptor Binding (% Inh. @ concentration in μM) V2,cloned human V2 receptor; 10 μM test compound,63% @ 10
CNCCC1CCN(C(=O)c2ccc(NC(=O)c3ccccc3C)cc2)c2ccccc2S1 (stereo not drawn) [Compound 14],Receptor Binding (% Inh. @ concentration in μM) V1a,vasopressin V1a receptor; 1 μM test compound,50% @ 1
same,Receptor Binding (% Inh. @ concentration in μM) V2,cloned human V2 receptor; 1 μM test compound,28% @ 1
"Cc1ccccc1C(=O)Nc1ccc(C(=O)N2CCC(CCN)Sc3ccccc32)cc1 (stereo not drawn) [Compound 15, 2-(2-Aminoethyl)-5-[4-(2-methylbenzoylamino)benzoyl]-1,5-benzothiazepine]",Receptor Binding (% Inh. @ concentration in μM) V1a,vasopressin V1a receptor; 1 μM test compound,42% @ 1
same,Receptor Binding (% Inh. @ concentration in μM) V2,cloned human V2 receptor; 1 μM test compound,47% @ 1
"2-(2-Methanesulfonylethyl)-5-[(4-(2-phenylbenzoylamino)benzoyl)]-1,5-benzothiazepine [Compound 16]",IC50,vasopressin V1a receptor,1.2 µM
same,IC50,cloned human V2 receptor,0.013 µM
"2-(2-Hydroxyethyl)-5-[2-chloro-4-(2-methyl-5-fluorobenzoylamino)benzoyl]-1,5-benzothiazepine [Compound 43]",Receptor Binding (% Inh. @ concentration in μM) V1a,vasopressin V1a receptor; 0.1 μM test compound,4% @ .1
same,IC50,cloned human V2 receptor,0.028 µM
"O=C(Nc1ccc(C(=O)N2CCC(CCO)S(=O)(=O)c3ccccc32)cc1)c1ccccc1-c1ccccc1 (stereo not drawn) [Compound 35, 2-(2-Hydroxyethyl)-1-dioxo-5-(4-(2-phenylbenzoylamino)-benzoyl)-1,5-benzothiazepine]",Receptor Binding (% Inh. @ concentration in μM) V1a,vasopressin V1a receptor; 0.1 μM test compound,2% @ .1
same,Receptor Binding (% Inh. @ concentration in μM) V2,cloned human V2 receptor; 0.1 μM test compound,20% @ .1
"O=C(Nc1ccc(S(=O)(=O)N2CCC(CCO)Sc3ccccc32)cc1)c1ccccc1-c1ccccc1 (stereo not drawn) [Compound 19, 2-(2-Hydroxyethyl)-5-[4-(2-phenylbenzoylamino)-benzenesulfonyl]-1,5-benzothiazepine]",Receptor Binding (% Inh. @ concentration in μM) V1a,vasopressin V1a receptor; 1 μM test compound,34% @ 1
same,Receptor Binding (% Inh. @ concentration in μM) V2,cloned human V2 receptor; 1 μM test compound,27% @ 1
"O=C(Nc1ccc(C(=O)N2CCC(CCO)[S+]([O-])c3ccccc32)cc1)c1ccccc1-c1ccccc1 (stereo not drawn) [Compound 36, 2-(2-hydroxyethyl)-1-oxo-5-(4-(2-phenylbenzoylamino)-benzoyl)-1,5-benzothiazepine]",Receptor Binding (% Inh. @ concentration in μM) V1a,vasopressin V1a receptor; 0.1 μM test compound,0 @ .1%
same,Receptor Binding (% Inh. @ concentration in μM) V2,cloned human V2 receptor; 0.1 μM test compound,38% @ .1
"2-(2-Hydroxyethyl)-5-(4-(2-phenylbenzoylamino)benzoyl)-1,5-benzothiazepine [Compound 26]",IC50,vasopressin V1a receptor,0.027 µM
same,IC50,cloned human V2 receptor,0.007 µM
Cc1ccccc1C(=O)Nc1ccc(S(=O)(=O)N2CCC(CCO)Sc3ccccc32)cc1 (stereo not drawn) [Compound 5],Receptor Binding (% Inh. @ concentration in μM) V1a,vasopressin V1a receptor; 10 μM test compound,13% @ 10
same,IC50,cloned human V2 receptor,0.76 µM
"2-(2-Hydroxyethyl)-5-[4-(3,4-dichlorobenzoylamino)benzene-sulfonyl]-1,5-benzothiazepine [Compound 10]",Receptor Binding (% Inh. @ concentration in μM) V1a,vasopressin V1a receptor; 10 μM test compound,0% @ 10
same,IC50,cloned human V2 receptor,2.1 µM
"CC(C)(N)C(=O)NCCC1CCN(C(=O)c2ccc(NC(=O)c3ccccc3-c3ccccc3)cc2)c2ccccc2S1.Cl (stereo not drawn) [Compound 39, 2-[2-Amino-2-methylpropionamido]-ethyl-5-[4-(2-phenylbenzoylamino)benzoyl]-1,5-benzothiazepine Hydrochloride]",Receptor Binding (% Inh. @ concentration in μM) V1a,vasopressin V1a receptor; concentration not given,0%
same,IC50,cloned human V2 receptor,0.017 µM
"O=CCC1CCN(C(=O)c2ccc(NC(=O)c3ccccc3-c3ccccc3)cc2)c2ccccc2S1 (stereo not drawn) [Compound 25, 2-[5-[4-(2-Phenylbenzoylamino)benzoyl]-1,5-benzothiazepine]acetaldehyde]",inhibition at 1 µM,vasopressin V1a receptor; 1 μM test compound,30%
same,IC50,cloned human V2 receptor,0.014 µM
N#CCCC1CCN(C(=O)c2ccc(NC(=O)c3ccccc3-c3ccccc3)cc2)c2ccccc2S1 (stereo not drawn) [Compound 30],Receptor Binding (% Inh. @ concentration in μM) V1a,vasopressin V1a receptor; 0.1 μM test compound,34% @ .1
same,IC50,cloned human V2 receptor,0.069 µM
"Cc1ccccc1C(=O)Nc1ccc(CN2C(=O)CC(CCO)Sc3ccccc32)cc1 (stereo not drawn) [Compound 22, 2-(2-Hydroxyethyl)-5-(4-(2-methylbenzoylamino)benzyl)-1,5-benzothiazepine-4-one]",Receptor Binding (% Inh. @ concentration in μM) V1a,vasopressin V1a receptor; 1 μM test compound,54% @ 1
same,Receptor Binding (% Inh. @ concentration in μM) V2,cloned human V2 receptor; 1 μM test compound,33% @ 1
"2-(2-Aminoethyl)-5-[4-(2-phenylbenzoylamino)benzoyl]-1,5-benzothiazepine [Compound 28]",Receptor Binding (% Inh. @ concentration in μM) V1a,vasopressin V1a receptor; 0.1 μM test compound,19% @ .1
same,Receptor Binding (% Inh. @ concentration in μM) V2,cloned human V2 receptor; 0.1 μM test compound,46% 0.1
CN(C)CCC1CCN(C(=O)c2ccc(N)cc2)c2ccccc2S1 (stereo not drawn) [Compound 12],Receptor Binding (% Inh. @ concentration in μM) V1a,vasopressin V1a receptor; 10 μM test compound,35% @ 10
same,Receptor Binding (% Inh. @ concentration in μM) V2,cloned human V2 receptor; 10 μM test compound,6% @ 10
"O=C(Nc1ccc(CN2C(=O)CC(CCO)Sc3ccccc32)cc1)c1ccccc1-c1ccccc1 (stereo not drawn) [Compound 23, 2-(2-Hydroxyethyl)-5-(4-(2-phenylbenzoylamino)benzyl)-1,5-benzothiazepine-4-one]",Receptor Binding (% Inh. @ concentration in μM) V1a,vasopressin V1a receptor; 1 μM test compound,33% @ 1
same,Receptor Binding (% Inh. @ concentration in μM) V2,cloned human V2 receptor; 1 μM test compound,43% @ 1
CC(=O)Nc1ccc(S(=O)(=O)N2CCC(CCN(C)C)Sc3ccccc32)cc1 (stereo not drawn) [Compound 1],Receptor Binding (% Inh. @ concentration in μM) V1a,vasopressin V1a receptor; 25 μM test compound,14% @ 25
same,Receptor Binding (% Inh. @ concentration in μM) V2,cloned human V2 receptor; 25 μM test compound,7% @ 25
"2-(2-Hydroxyethyl)-5-(4-aminobenzenesulfonyl)-1,5-benzothiazepine [Compound 4]",Receptor Binding (% Inh. @ concentration in μM) V1a,vasopressin V1a receptor; 10 μM test compound,21% @ 10
same,Receptor Binding (% Inh. @ concentration in μM) V2,cloned human V2 receptor; 10 μM test compound,20% @ 10
Cc1ccccc1C(=O)Nc1ccc(C(=O)N2CCC(CCO)Sc3ccccc32)cc1 (stereo not drawn) [Compound 18],IC50,vasopressin V1a receptor,0.041 µM
same,IC50,cloned human V2 receptor,0.048 µM
"2-(2-Methanesulfonylethyl)-5-[(4-(2-phenylbenzoylamino)-benzyl)]-1,5-benzothiazepin-4-one [Compound 21]",Receptor Binding (% Inh. @ concentration in μM) V1a,vasopressin V1a receptor; 0.1 μM test compound,5% @ 0.1
same,Receptor Binding (% Inh. @ concentration in μM) V2,cloned human V2 receptor; 0.1 μM test compound,1% @ 0.1
"2-[N-(tert-butoxycarbonyl)-ethyl]-5-[4-(2-methylbenzoylamino)-benzyl]-1,5-benzothiazepine-4-one [Compound 6]",Receptor Binding (% Inh. @ concentration in μM) V1a,vasopressin V1a receptor; 10 μM test compound,13% @ 10
same,Receptor Binding (% Inh. @ concentration in μM) V2,cloned human V2 receptor; 10 μM test compound,22% @ 10
"Cc1ccccc1C(=O)Nc1ccc(S(=O)(=O)N2CCC(CCN3CCOCC3)Sc3ccccc32)cc1 (stereo not drawn) [Compound 3, 2-[2-(N-Morpholino)-ethyl]-5-[4-(2-methylbenzoylamino)-benzenesulfonyl]-1,5-benzothiazepine]",Receptor Binding (% Inh. @ concentration in μM) V1a,vasopressin V1a receptor; 25 μM test compound,47% @ 25
same,Receptor Binding (% Inh. @ concentration in μM) V2,cloned human V2 receptor; 25 μM test compound,37% @ 25
"2-(2-Hydroxyethyl)-5-(4-(2-phenylbenzoylamino)benzoyl)-1,5-benzothiazepine [Compound 27]",IC50,vasopressin V1a receptor,0.091 µM
same,IC50,cloned human V2 receptor,0.014 µM
"Cc1ccccc1C(=O)Nc1ccc(CN2C(=O)CC(CCN)Sc3ccccc32)cc1 (stereo not drawn) [Compound 7, 2-(2-Aminoethyl)-5-[4-(2-methylbenzoylamino)-benzyl]-1,5-benzothiazepine-4-one]",Receptor Binding (% Inh. @ concentration in μM) V1a,vasopressin V1a receptor; 10 μM test compound,10% @ 10
same,Receptor Binding (% Inh. @ concentration in μM) V2,cloned human V2 receptor; 10 μM test compound,4% @ 10
COc1ccc(CNCCC2CC(=O)N(Cc3ccc(NC(=O)c4ccccc4C)cc3)c3ccccc3S2)c(OC)c1 (stereo not drawn) [Compound 8],Receptor Binding (% Inh. @ concentration in μM) V1a,vasopressin V1a receptor; 10 μM test compound,33% @ 10
same,Receptor Binding (% Inh. @ concentration in μM) V2,cloned human V2 receptor; 10 μM test compound,32% @ 10
"O=C(Nc1ccc(C(=O)N2CCC(CCS(=O)(=O)O)Sc3ccccc32)cc1)c1ccccc1-c1ccccc1 (stereo not drawn) [Compound 32, 2-Ethyl[5-[4-(2-phenylbenzoylamino)benzoyl]-1,5-benzothiazepin]sulfonic Acid]",inhibition at 0.1 µM,vasopressin V1a receptor; 0.1 μM test compound,10%
same,IC50,cloned human V2 receptor,0.012 µM
O=C(O)CCC1CCN(C(=O)c2ccc(NC(=O)c3ccccc3-c3ccccc3)cc2)c2ccccc2S1 (stereo not drawn) [Compound 31],inhibition at 0.1 µM,vasopressin V1a receptor; 0.1 μM test compound,30%
same,IC50,cloned human V2 receptor,0.009 µM
"Cc1ccccc1C(=O)Nc1ccc(S(=O)(=O)N2CCC(CCN(C)C)Sc3ccccc32)cc1 (stereo not drawn) [Compound 2, 2-(2-Dimethylaminoethyl)-5-(4-(2-methylbenzoylamino)-benzenesulfonyl]-1,5-benzothiazepine]",Receptor Binding (% Inh. @ concentration in μM) V1a,vasopressin V1a receptor; 25 μM test compound,29% @ 25
same,Receptor Binding (% Inh. @ concentration in μM) V2,cloned human V2 receptor; 25 μM test compound,34% @ 25
O=C(Nc1ccc(C(=O)N2CCC(CCO)Sc3ccccc32)cc1)c1ccccc1-c1ccccc1 (stereo not drawn) [Compound 17],IC50,vasopressin V1a receptor,0.097 µM
same,IC50,cloned human V2 receptor,0.008 µM
"COC(=O)CC1CCN(C(=O)c2ccc(NC(=O)c3ccccc3-c3ccccc3)cc2)c2ccccc2S1 (stereo not drawn) [Compound 37, 2-Methyl-[5-(4-(2-phenylbenzoylamino)benzoyl)-1,5-benzothiazepine]acetate]",Receptor Binding (% Inh. @ concentration in μM) V1a,vasopressin V1a receptor; 0.1 μM test compound,17% @ .1
same,IC50,cloned human V2 receptor,0.05 µM
"2-(2-Hydroxyethyl)-5-(4-(2-phenylbenzoylamino)-pyridinoyl)-1,5-benzothiazepine [Compound 40]",Receptor Binding (% Inh. @ concentration in μM) V1a,vasopressin V1a receptor; 0.1 μM test compound,22% @ .1
same,IC50,cloned human V2 receptor,0.03 µM
"2-(2-Methanesulfonylethyl)-5-[(4-(2-phenylbenzoylamino)-benzenesulfonyl)]-1,5-benzothiazepine [Compound 20]",Receptor Binding (% Inh. @ concentration in μM) V1a,vasopressin V1a receptor; 1 μM test compound,24% @ 1
same,Receptor Binding (% Inh. @ concentration in μM) V2,cloned human V2 receptor; 1 μM test compound,6% @ 1
